Our source for the IC50 values is patent US20260070945A1, “MACROCYCLIC IMMUNOMODULATORS” (Bristol-Myers Squibb Company, priority 2022, published 2026).

pIC50: −log10 of the molar value. *1 amine or outer side, *2 acyl side, *3 side chain or, on linkers, in order; H or OH if unused. Where a SMILES comes first, the peptide text is derived from it. Bridges are numbered along the chain shown (N, C = ends). [ ]: non-standard residue; d: D form. The star is where a group is joined. X5 = O=C([C@H](Cc1ccc(-c2cc(F)c(F)c(F)c2)cc1)N[*:1])[*:2]; Phe(3-CF3) = N[C@@H](Cc1cccc(C(F)(F)F)c1)C(=O)O; Phe(4-COOH) = N[C@@H](Cc1ccc(C(=O)O)cc1)C(=O)O; Bip = N[C@@H](Cc1ccc(-c2ccccc2)cc1)C(=O)O; Phe(3-Cl) = N[C@@H](Cc1cccc(Cl)c1)C(=O)O; Phe(3-Me) = Cc1cccc(C[C@H](N)C(=O)O)c1; X6 = O=C(Cc1ccc(CN[*:1])cc1)[*:2]; dAla(cPr) = N[C@H](CC1CC1)C(=O)O; Cha = N[C@@H](CC1CCCCC1)C(=O)O; dCba = N[C@H](CC1CCC1)C(=O)O; Carboxymethyl = O=C(O)C*; NMeA = CN[C@@H](C)C(=O)O; Orn = NCCC[C@H](N)C(=O)O; Pra = C#CC[C@H](N)C(=O)O; Aun = NCCCCCCCCCCC(=O)O; Dab = NCC[C@H](N)C(=O)O; AEEA = NCCOCCOCC(=O)O; Ac3c = NC1(C(=O)O)CC1

The target of this test is T1, PD-1/PD-L1 interaction (PE-labeled human PD-L1-Ig binding to Jurkat cell line over-expressing human PD-1) (Homo sapiens, UniProt Q15116).
T1 construct: expressed in transfected cells; host or cells: Jurkat
T1 sequence (Q15116 25-288): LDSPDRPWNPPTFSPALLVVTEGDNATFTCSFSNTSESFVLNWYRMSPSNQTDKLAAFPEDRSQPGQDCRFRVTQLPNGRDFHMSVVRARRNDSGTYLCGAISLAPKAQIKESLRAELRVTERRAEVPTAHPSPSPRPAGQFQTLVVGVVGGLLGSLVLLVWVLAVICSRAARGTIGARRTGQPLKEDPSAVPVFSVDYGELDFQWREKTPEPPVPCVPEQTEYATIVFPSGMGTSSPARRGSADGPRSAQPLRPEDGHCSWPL
Put plainly: Jurkat-PD-1 Cell Binding High-Content Screening Assay (CBA). To be noted: Jurkat-hPD-1 cells, PE-labeled PD-L1-Ig 20 nM final; read-out: Jurkat HPD1 PDL1 IC50. Summed up: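 Compound is added first to the PD-1-expressing Jurkat cells and held 2 h at 37 °C in serum-containing DMEM. The fluorescent PD-L1 fusion follows at 20 nM final for 1 h. Fixed, Hoechst-stained cells are then imaged for bound label.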
As a reminder, the pIC50 is the negative decadic logarithm of the IC50, by convention in mol/L. For `CC(C)C[C@H]1NC(=O)[C@H](C)N(C)C(=O)[C@H](Cc2ccc(OCC(=O)O)cc2)NC(=O)[C@H](Cc2ccc(-c3cc(F)c(F)c(F)c3)cc2)NC(=O)[C@H](Cc2ccc(C(=O)O)cc2)NC(=O)[C@H](Cc2cccc(C(F)(F)F)c2)NC(=O)[C@H](CC(=O)O)NC(=O)[C@H](Cc2ccc(OCC(=O)O)cc2)NC(=O)[C@H]([C@@H](C)O)NC(=O)CSC[C@@H](C(=O)N[C@@H](CCN)C(=O)NCCCCCCCCCCC(=O)O)NC(=O)[C@H]([C@@H](C)O)NC(=O)[C@H](C(C)C)NC(=O)[C@H](CC2CCCCC2)NC(=O)[C@H](CCN)NC1=O` [Example 1237] ({CH2CO}-TY(Carboxymethyl)D[Phe(3-CF3)][Phe(4-COOH)][X5]Y(Carboxymethyl)[NMeA][dL][Dab][Cha]VTC[Dab][Aun]-OH; thioether N-14), the pIC50 was 6.74. For `C#CC[C@H](NC(=O)[C@H](CCN)NC(=O)[C@@H]1CSCC(=O)N[C@@H]([C@@H](C)O)C(=O)N[C@@H](Cc2ccc(OCC(=O)O)cc2)C(=O)N[C@@H](CC(=O)O)C(=O)N[C@@H](Cc2cccc(C(F)(F)F)c2)C(=O)N[C@@H](Cc2ccc(C(=O)O)cc2)C(=O)N[C@@H](Cc2ccc(-c3ccccc3)cc2)C(=O)N[C@@H](Cc2ccc(OCC(=O)O)cc2)C(=O)N(C)[C@@H](C)C(=O)N[C@H](CC(C)C)C(=O)N[C@@H](CCN)C(=O)N[C@@H](CC2CCCCC2)C(=O)N[C@@H](C(C)C)C(=O)N[C@@H]([C@@H](C)O)C(=O)N1)C(=O)NCCCCCCCCCCC(=O)O` [Example 1238] ({CH2CO}-TY(Carboxymethyl)D[Phe(3-CF3)][Phe(4-COOH)][Bip]Y(Carboxymethyl)[NMeA][dL][Dab][Cha]VTC[Dab][Pra][Aun]-OH; thioether N-14), the pIC50 is 7.83. To `C#CC[C@H](NC(=O)[C@H](CCN)NC(=O)[C@@H]1CSCC(=O)N[C@@H]([C@@H](C)O)C(=O)N[C@@H](Cc2ccc(OCC(=O)O)cc2)C(=O)N[C@@H](CC(=O)O)C(=O)N[C@@H](Cc2cccc(Cl)c2)C(=O)N[C@@H](Cc2ccc(C(=O)O)cc2)C(=O)N[C@@H](Cc2ccc(-c3ccccc3)cc2)C(=O)N[C@@H](Cc2ccc(OCC(=O)O)cc2)C(=O)N(C)[C@@H](C)C(=O)N[C@H](CC(C)C)C(=O)N[C@@H](CCN)C(=O)N[C@@H](CC2CCCCC2)C(=O)N[C@@H](C(C)C)C(=O)N[C@@H]([C@@H](C)O)C(=O)N1)C(=O)NCCCCCCCCCCC(=O)O` [Example 1239] ({CH2CO}-TY(Carboxymethyl)D[Phe(3-Cl)][Phe(4-COOH)][Bip]Y(Carboxymethyl)[NMeA][dL][Dab][Cha]VTC[Dab][Pra][Aun]-OH; thioether N-14) belongs 7.98. To `C#CC[C@H](NC(=O)[C@H](CCN)NC(=O)[C@@H]1CSCC(=O)N[C@@H]([C@@H](C)O)C(=O)N[C@@H](Cc2ccc(OCC(=O)O)cc2)C(=O)N[C@@H](CC(=O)O)C(=O)N[C@@H](Cc2cccc(C)c2)C(=O)N[C@@H](Cc2ccc(C(=O)O)cc2)C(=O)N[C@@H](Cc2ccc(-c3ccccc3)cc2)C(=O)N[C@@H](Cc2ccc(OCC(=O)O)cc2)C(=O)N(C)[C@@H](C)C(=O)N[C@H](CC(C)C)C(=O)N[C@@H](CCN)C(=O)N[C@@H](CC2CCCCC2)C(=O)N[C@@H](C(C)C)C(=O)N[C@@H]([C@@H](C)O)C(=O)N1)C(=O)NCCCCCCCCCCC(=O)O` [Example 1240] ({CH2CO}-TY(Carboxymethyl)D[Phe(3-Me)][Phe(4-COOH)][Bip]Y(Carboxymethyl)[NMeA][dL][Dab][Cha]VTC[Dab][Pra][Aun]-OH; thioether N-14) belongs 7.68; to `Cc1cccc(C[C@@H]2NC(=O)[C@H](CC(=O)O)NC(=O)[C@H](Cc3ccc(OCC(=O)O)cc3)NC(=O)[C@H]([C@@H](C)O)NC(=O)CSC[C@@H](C(=O)N[C@@H](CCN)C(=O)N[C@@H](Cc3cn(CC(=O)NCCCNC(=O)c4cc(F)c(F)c(F)c4)nn3)C(=O)NCCCCCCCCCCC(=O)O)NC(=O)[C@H]([C@@H](C)O)NC(=O)[C@H](C(C)C)NC(=O)[C@H](CC3CCCCC3)NC(=O)[C@H](CCN)NC(=O)[C@@H](CC(C)C)NC(=O)[C@H](C)N(C)C(=O)[C@H](Cc3ccc(OCC(=O)O)cc3)NC(=O)[C@H](Cc3ccc(-c4ccccc4)cc3)NC(=O)[C@H](Cc3ccc(C(=O)O)cc3)NC2=O)c1` [Example 1241], 7.63; to `CC(C)C[C@@H]1NC(=O)[C@H](Cc2c[nH]c3ccccc23)NC(=O)[C@H](CC(=O)O)NC(=O)[C@H](Cc2ccc(C(=O)O)cc2)NC(=O)[C@H](Cc2ccc(OCC(=O)O)cc2)NC(=O)CSC[C@@H](C(=O)N[C@@H](CCCN)C(=O)NCCOCCOCC(=O)NCCCCCCCCCCC(=O)O)NC(=O)[C@@H](CO)NC(=O)[C@H](C(C)C)NC(=O)[C@H](CC2CCCCC2)NC(=O)[C@H](CCN)NC(=O)[C@@H](CC(C)C)NC(=O)[C@H](C)N(C)C(=O)[C@H](C(C)C)NC(=O)[C@H](Cc2ccc(-c3ccccc3)cc2)NC1=O` [Example 1242] ({CH2CO}-Y(Carboxymethyl)[Phe(4-COOH)]DWL[Bip]V[NMeA][dL][Dab][Cha]V[dS]C[Orn][AEEA][Aun]-OH; thioether N-14), 7.70. The result for `CC(C)C[C@@H]1NC(=O)[C@H](Cc2c[nH]c3ccccc23)NC(=O)[C@H](CC(=O)O)NC(=O)[C@H](Cc2ccc(C(=O)O)cc2)NC(=O)[C@H](Cc2ccc(OCC(=O)O)cc2)NC(=O)CSC[C@@H](C(=O)N[C@@H](CCCN)C(=O)NCc2ccc(CC(=O)NCCCCCCCCCCC(=O)O)cc2)NC(=O)[C@H](CO)NC(=O)[C@H](C(C)C)NC(=O)[C@H](CC2CCCCC2)NC(=O)[C@H](CCN)NC(=O)[C@@H](CC(C)C)NC(=O)[C@H](C)N(C)C(=O)[C@H](C(C)C)NC(=O)[C@H](Cc2ccc(-c3ccccc3)cc2)NC1=O` [Example 1243] ({CH2CO}-Y(Carboxymethyl)[Phe(4-COOH)]DWL[Bip]V[NMeA][dL][Dab][Cha]VSC[Orn][X6][Aun]-OH; thioether N-14) reads 7.55; that for `CC(C)C[C@@H]1NC(=O)[C@H](Cc2c[nH]c3ccccc23)NC(=O)[C@H](CC(=O)O)NC(=O)[C@H](Cc2ccc(C(=O)O)cc2)NC(=O)[C@H](Cc2ccc(OCC(=O)O)cc2)NC(=O)CSC[C@@H](C(=O)N[C@@H](CCCCN)C(=O)NCc2ccc(CC(=O)NCCCCCCCCCCC(=O)O)cc2)NC(=O)[C@H](CO)NC(=O)[C@H](C(C)C)NC(=O)[C@H](CC2CCCCC2)NC(=O)[C@H](CCN)NC(=O)[C@@H](CC(C)C)NC(=O)[C@H](C)N(C)C(=O)[C@H](C(C)C)NC(=O)[C@H](Cc2ccc(-c3ccccc3)cc2)NC1=O` [Example 1245] ({CH2CO}-Y(Carboxymethyl)[Phe(4-COOH)]DWL[Bip]V[NMeA][dL][Dab][Cha]VSCK[X6][Aun]-OH; thioether N-14), 7.74; that for `CC(C)C[C@@H]1NC(=O)[C@H](Cc2c[nH]c3ccccc23)NC(=O)[C@H](CC(=O)O)NC(=O)[C@H](Cc2ccc(C(=O)O)cc2)NC(=O)[C@H](Cc2ccc(OCC(=O)O)cc2)NC(=O)CSC[C@@H](C(=O)N[C@@H](CCCCN)C(=O)NCCOCCOCC(=O)NCCCCCCCCCCC(=O)O)NC(=O)[C@@H](CO)NC(=O)[C@H](C(C)C)NC(=O)[C@H](CC2CCCCC2)NC(=O)[C@H](CCN)NC(=O)[C@@H](CC(C)C)NC(=O)[C@H](C)N(C)C(=O)[C@H](C(C)C)NC(=O)[C@H](Cc2ccc(-c3ccccc3)cc2)NC1=O` [Example 1246] ({CH2CO}-Y(Carboxymethyl)[Phe(4-COOH)]DWL[Bip]V[NMeA][dL][Dab][Cha]V[dS]CK[AEEA][Aun]-OH; thioether N-14), 7.50.

For the compound `CC(C)C[C@@H]1NC(=O)[C@H](Cc2c[nH]c3ccccc23)NC(=O)[C@H](CC(=O)O)NC(=O)[C@H](Cc2ccc(OCC(=O)O)cc2)NC(=O)[C@H](Cc2ccc(OCC(=O)O)cc2)NC(=O)CSC[C@@H](C(=O)NC2(C(=O)NCCOCCOCC(=O)NCCCCCCCCCCC(=O)O)CC2)NC(=O)[C@H](CCCNC(=N)N)NC(=O)[C@H](C(C)C)NC(=O)[C@H](CC2CCCCC2)NC(=O)[C@H](CCN)NC(=O)[C@@H](CC(C)C)NC(=O)[C@H](C)N(C)C(=O)[C@H](C(C)C)NC(=O)[C@H](Cc2ccc(-c3ccccc3)cc2)NC1=O` [Example 1247] ({CH2CO}-Y(Carboxymethyl)Y(Carboxymethyl)DWL[Bip]V[NMeA][dL][Dab][Cha]VRC[Ac3c][AEEA][Aun]-OH; thioether N-14), the negative-log IC50 (pIC50) was 8.39. The result for `CC(C)C[C@@H]1NC(=O)[C@H](Cc2c[nH]c3ccccc23)NC(=O)[C@H](CC(=O)O)NC(=O)[C@H](Cc2ccc(C(=O)O)cc2)NC(=O)[C@H](Cc2ccc(OCC(=O)O)cc2)NC(=O)CSC[C@@H](C(=O)N[C@@H](CCCN)C(=O)NCCOCCOCC(=O)NCCCCCCCCCCC(=O)O)NC(=O)[C@H](CO)NC(=O)[C@H](C(C)C)NC(=O)[C@H](CC2CCCCC2)NC(=O)[C@H](CCN)NC(=O)[C@@H](CC2CC2)NC(=O)[C@H](C)N(C)C(=O)[C@H](C(C)C)NC(=O)[C@H](Cc2ccc(-c3ccccc3)cc2)NC1=O` [Example 1248] ({CH2CO}-Y(Carboxymethyl)[Phe(4-COOH)]DWL[Bip]V[NMeA][dAla(cPr)][Dab][Cha]VSC[Orn][AEEA][Aun]-OH; thioether N-14) reads 7.74.

On to `CC(C)C[C@@H]1NC(=O)[C@H](Cc2c[nH]c3ccccc23)NC(=O)[C@H](CC(=O)O)NC(=O)[C@H](Cc2ccc(C(=O)O)cc2)NC(=O)[C@H](Cc2ccc(OCC(=O)O)cc2)NC(=O)CSC[C@@H](C(=O)N[C@@H](CCCN)C(=O)NCCOCCOCC(=O)NCCCCCCCCCCC(=O)O)NC(=O)[C@H](CO)NC(=O)[C@H](C(C)C)NC(=O)[C@H](CC2CCCCC2)NC(=O)[C@H](CCN)NC(=O)[C@@H](CC2CCC2)NC(=O)[C@H](C)N(C)C(=O)[C@H](C(C)C)NC(=O)[C@H](Cc2ccc(-c3ccccc3)cc2)NC1=O` [Example 1249] ({CH2CO}-Y(Carboxymethyl)[Phe(4-COOH)]DWL[Bip]V[NMeA][dCba][Dab][Cha]VSC[Orn][AEEA][Aun]-OH; thioether N-14), for which the pIC50 was 7.53.
